Measured values published in publication PMC9311596, “Main Bioactive Components and Their Biological Activities from Natural and Processed Rhizomes of Polygonum sibiricum” (Antioxidants, 2022).
“Also recorded” adds a separate entry of the source. Where two headings read alike, the source gives them in different places.

Columns and labels:
[1] = target: T1, acetylcholinesterase (AChE) (Electrophorus electricus, UniProt O42275); experiment: biochemical
T1 construct: purchased Sigma-Aldrich
Protocol: The AChE inhibitory assay was performed according to the previous method, with slight modifications. First, 1 mL of DTNB (15 mM) solution, 1 mL of AChI (15 mM) solution, 1 mL of AChE (0.2 U/mL), and various concentrations of PS (50–400 μg/mL) were prepared using sodium phosphate buffer (0.1 M, pH 8.0). The reaction was started by adding 140 μL PBS, 10 μL DTNB solution, 15 μL AChE solution and 20 μL sample. The reaction mixture was incubated at 20 °C in the dark for 10 min, and 10 μL of AChI solution was added. Finally, the reaction mixture was incubated at 20 °C for 10 min, and the absorbance was measured at 405 nm.

[2] = tested on: LPS-induced NO production in RAW264.7 macrophages; experiment: Nitric oxide inhibitory assay; format: cell-based, Murine; conditions: Mus musculus
Protocol: Murine RAW264.7 macrophages were cultured in DMEM medium containing 10% fetal bovine serum (FBS) and 1% penicillin at 37 °C, 5% CO2 [37].
The NO inhibitory assay was performed based on the reference method.

[3] = Ferric reducing antioxidant power (FRAP) assay; conditions: for FRAP (TE): isolated components, mM Trolox equivalents per gram
Protocol: The FRAP assay was determined using the method previously reported.

[4] = Superoxide radical scavenging assay; conditions: isolated components; read-out: SC50 Superoxide
Protocol: This assay was determined using the method previously reported.

[5] = ABTS radical scavenging assay; conditions: for EC50: isolated components, read-out: SC50 ABTS
Protocol: (§1) This assay was determined using the procedure previously reported.

[6] = tested on: TNF-α; experiment: Western blot analysis of TNF-α; format: cell-based, Murine; conditions: 12.5, 25, and 50 µM, LPS 100 ng/mL, RAW264.7
Protocol: (§2) The Western blot analysis was performed using the reference method with slight modifications. RAW264.7 cells were seeded in 6 cm dishes for 24 h. The cells were treated with sample (12.5, 25, and 50 µM) and LPS (100 ng/mL). After treatment with drugs, cells were washed with cold PBS, and proteins were collected with lysis buffer containing protein inhibitors. After quantification, equal amounts of protein samples were separated using 5–8% SDS-polyacrylamide gels. The proteins were transferred to the membrane by electrophoresis. The membranes were soaked in 2% BSA blocking buffer for 2 h and then washed 2–3 times with TBST. Next, the membranes were visualized with primary antibody (iNOS, TNF-α, and IL-6) and soaked for 1 day. The next day, membranes were washed again with TBST 2–3 times and then soaked with secondary antibody for 2 h. Finally, immuno-reactivity was detected with ECL reagents, exposed with a luminometer photometer, and quantified with Image J.

[7] = DPPH radical scavenging assay; conditions: for EC50: isolated components, read-out: SC50 DPPH
Protocol: as §1

[8] = tested on: IL-6; experiment: Western blot analysis of IL-6; format: cell-based, Murine; conditions: 12.5, 25, and 50 µM, LPS 100 ng/mL, RAW264.7
Protocol: as §2

[9] = tested on: iNOS; experiment: Western blot analysis of iNOS; format: cell-based, Murine; conditions: 12.5, 25, and 50 µM, LPS 100 ng/mL, RAW264.7
Protocol: as §2

[10] = isolated compounds, read-out: AChE IC50 (converted)
[11] = isolated compounds, LPS-induced NO, RAW264.7, read-out: Nitric Oxide IC50
[12] = RAW264.7, read-out: Nitric Oxide IC50
[13] = solvent extracts, concentration causing 50% free radical scavenging

T1 sequence (O42275 24-633): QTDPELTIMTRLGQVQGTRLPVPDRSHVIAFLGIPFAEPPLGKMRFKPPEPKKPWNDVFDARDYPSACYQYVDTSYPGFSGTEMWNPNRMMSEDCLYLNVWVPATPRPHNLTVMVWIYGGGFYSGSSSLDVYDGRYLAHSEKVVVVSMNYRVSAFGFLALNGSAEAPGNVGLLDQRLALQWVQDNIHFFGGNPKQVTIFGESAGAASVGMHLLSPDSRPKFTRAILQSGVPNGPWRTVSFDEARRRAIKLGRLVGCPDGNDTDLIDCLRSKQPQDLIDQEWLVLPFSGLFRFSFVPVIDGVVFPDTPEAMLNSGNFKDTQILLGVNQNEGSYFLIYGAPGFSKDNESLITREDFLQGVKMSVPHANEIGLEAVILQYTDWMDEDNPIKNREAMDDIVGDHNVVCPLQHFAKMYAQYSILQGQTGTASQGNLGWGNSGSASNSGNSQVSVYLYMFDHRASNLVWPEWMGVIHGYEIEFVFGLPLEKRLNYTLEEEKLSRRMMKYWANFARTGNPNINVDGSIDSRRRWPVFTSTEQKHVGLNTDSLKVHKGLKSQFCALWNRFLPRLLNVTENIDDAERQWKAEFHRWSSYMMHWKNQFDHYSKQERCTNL

Structure (SMILES): O=C(/C=C/c1ccc(O)c(O)c1)O[C@@H]1C[C@](O)(C(=O)O)C[C@@H](O)[C@H]1O [Chlorogenic acid, chlorogenic acid, reference compound]
- IC50 [1, 10]: 68.2 ± 2.9 µM
- IC50 ([1]; solvent extracts, read-out: AChE IC50 (converted)): 65.7 µM

Structure (SMILES): O=c1c(O)c(-c2ccc(O)c(O)c2)oc2cc(O)cc(O)c12 [Quercetin, quercetin, reference compound]
- IC50 [2, 11]: 18.3 ± 0.54 µM
- IC50 ([2]; solvent extracts, LPS-induced NO, RAW264.7, read-out: Nitric Oxide IC50): 7.52 ± 0.25 µg/mL

Structure (SMILES): O=c1c(O[C@@H]2O[C@H](CO)[C@@H](O)[C@H](O)[C@H]2O)c(-c2ccc(O)c(O)c2)oc2cc(O)cc(O)c12 [Isoquercetin (3), isoquercetin]
- IC50 [1]: 23.1 ± 3.15 µM
- FRAP (TE) [3]: 3898.88 ± 23.23 mM/g
- IC50 [2, 12]: 17 ± 1.28 µM
- EC50 [4]: 180 ± 4.43 µM
- EC50 [5]: 22.7 ± 1.17 µM
- inhibition of TNF-α production [6]: significantly inhibited the production of TNF-α and IL-6 in a concentration-dependent manner
- EC50 [7]: 12.6 ± 3.21 µM
- inhibition of IL-6 production [8]: significantly inhibited the production of TNF-α and IL-6 in a concentration-dependent manner
- inhibition of iNOS production [9]: significantly inhibited iNOS production in a concentration-dependent manner

Structure (SMILES): O=Cc1ccc(CO)o1 [5-HMF (1), 5-hydroxymethylfurfural]
- IC50 [1, 10]: 81.5 ± 11.1 µM
- FRAP (TE) [3]: 26.70 ± 0.97 mM/g
- IC50 [2, 11]: 34.9 ± 8.8 µM
- EC50 [4]: > 400 µM
- EC50 [5]: > 400 µM
- EC50 [7]: > 400 µM

Structure (SMILES): Cc1cc(C(C)(C)C)c(O)c(C(C)(C)C)c1 [BHT, Butylated hydroxytoluene, reference compound]
- FRAP (TE) [3]: 2896.93 ± 21.19 mM/g
- TE FRAP ([3]; solvent extracts, mM Trolox equivalents per gram of fresh extract): 3005.93 ± 13.10 mM/g
- EC50 [5]: 100 ± 7.26 µM
- SC50 ABTS [5, 13]: 20.57 ± 0.22 µg/mL
- EC50 [7]: 192 ± 8.94 µM
- SC50 DPPH [7, 13]: 35.54 ± 0.64 µg/mL

Structure (SMILES): O=c1c(O[C@@H]2O[C@H](CO)[C@H](O)[C@H](O)[C@H]2O)c(-c2ccc(O)c(O)c2)oc2cc(O)cc(O)c12 [Hyperoside (4), hyperoside]
- IC50 [1]: 121 ± 10.7 µM
- FRAP (TE) [3]: 3246.93 ± 31.92 mM/g
- IC50 [2, 12]: 18.9 ± 1.68 µM
- EC50 [4]: 172 ± 3.8 µM
- EC50 [5]: 29.3 ± 0.51 µM
- inhibition of TNF-α production [6]: significantly inhibited the production of TNF-α and IL-6 in a concentration-dependent manner
- EC50 [7]: 12.5 ± 4.02 µM
- inhibition of IL-6 production [8]: significantly inhibited the production of TNF-α and IL-6 in a concentration-dependent manner
- inhibition of iNOS production [9]: significantly inhibited iNOS production in a concentration-dependent manner

Structure (SMILES): C[C@@H]1O[C@@H](OC[C@H]2O[C@@H](Oc3c(-c4ccc(O)c(O)c4)oc4cc(O)cc(O)c4c3=O)[C@H](O)[C@@H](O)[C@@H]2O)[C@H](O)[C@H](O)[C@H]1O [Rutin (5), rutin]
- IC50 [1]: 33.1 ± 5.43 µM
- FRAP (TE) [3]: 2221.33 ± 5.02 mM/g
- IC50 [2, 12]: 9.89 ± 1.36 µM
- EC50 [4]: 175 ± 3.02 µM
- EC50 [5]: 15.4 ± 0.25 µM
- inhibition of TNF-α production [6]: significantly inhibited the production of TNF-α and IL-6 in a concentration-dependent manner
- EC50 [7]: 5.6 ± 0.34 µM
- inhibition of IL-6 production [8]: significantly inhibited the production of TNF-α and IL-6 in a concentration-dependent manner
- inhibition of iNOS production [9]: strongest inhibitory effect among all isolated compounds; also recorded: significantly inhibited iNOS production in a concentration-dependent manner

Structure (SMILES): COc1cc2ccc(=O)oc2cc1O [Scopoletin (2), scopoletin]
- IC50 [1]: 32.4 ± 2.05 µM
- FRAP (TE) [3]: 2892.97 ± 19.18 mM/g
- IC50 [2, 11]: 36.3 ± 4.65 µM
- EC50 [4]: > 400 µM
- EC50 [5]: 91.3 ± 3.36 µM
- EC50 [7]: > 400 µM
